Assay results as given in patent US10227349B2, “Pyrazolo[1,5-a]pyrimidine compound” (Eisai R&D Management Co., Ltd., priority 2016, dated 2019).

What was measured:
[1] = biological target: T1, PAR2 (Homo sapiens, UniProt P55085); test: Intracellular calcium concentration measurement (trypsin-induced calcium elevation, FDSS6000); format: cell-based; settings: HEK293 cells, trypsin 5 U/mL as agonist, test compound added 30 min before measurement; read-out: Inhibitory activity on intracellular calcium elevation (IC50 (nM))
T1 construct: Human embryonic kidney cell line HEK293 cells cultured using DMEM culture medium; endogenous in cells; host or cells: HEK293
T1 sequence (P55085 26-397): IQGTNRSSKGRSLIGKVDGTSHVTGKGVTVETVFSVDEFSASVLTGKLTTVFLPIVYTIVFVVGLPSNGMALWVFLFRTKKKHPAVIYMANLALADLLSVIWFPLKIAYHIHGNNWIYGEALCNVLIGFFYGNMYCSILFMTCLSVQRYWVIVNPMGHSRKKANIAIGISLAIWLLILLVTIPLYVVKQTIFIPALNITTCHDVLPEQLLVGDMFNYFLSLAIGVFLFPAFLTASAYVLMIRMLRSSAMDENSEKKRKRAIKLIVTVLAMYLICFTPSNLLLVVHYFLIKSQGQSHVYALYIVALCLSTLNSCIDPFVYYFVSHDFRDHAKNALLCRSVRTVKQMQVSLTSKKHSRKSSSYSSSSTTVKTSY
Source text: In the present specification, examples of the measurement method for the PAR2 inhibitory activity include measurement method for a concentration elevation of intracellular calcium; measurement method for a production increase of intracellular inositol trisphosphate; measurement method for an increase in intracellular protein phosphorylation by protein kinase C and MAP kinase; and measurement method for a production amount or a release amount of inflammation-related physiologically active substances such as cytokine, chemokine, prostaglandin and nitric monoxide. Examples of the measurement method for an elevation of intracellular calcium concentration include a method wherein a calcium-binding fluorescent probe is allowed to be incorporated in advance into a cultured cell line or an animal-derived isolated cell having PAR2, or a cell in which PAR2 is artificially expressed, a protease having the PAR2 activity function such as trypsin or a PAR2 agonist (synthetic peptides such as SLIGKV-NH2 (SEQ ID NO: 1) and SLIGRL-NH2 (SEQ ID NO: 2) is added to activate PAR2 whereby fluctuating intracellular calcium concentrations are detected as changes in the fluorescent signal. Alternatively, it is also possible to measure an intracellular calcium concentration by determining the quantity of a fluorescence intensity produced in proportion to the calcium concentration using a calcium-binding luminescent protein overexpressing cell line such as Aequorin. Specifically, examples include the methods described in Test Examples of the present specification.
Human embryonic kidney cell line HEK293 cells cultured using DMEM culture medium (Invitrogen) with 3% fetal bovine serum (3% FBS)-added was prepared to have a concentration of 2×10^5 cells/mL, and plated in a type I collagen-coated 384-well black plate (clear bottom) (Greiner) so as to be 25 μL/well and cultured in a CO2 incubator overnight. FLIPR Calcium Assay Kit (Molecular Devices) prepared with Hanks-20 mM Hepes buffer (pH 7.4) was added to the cells so as to be 25 μL/well and cultured in the CO2 incubator for 1 hour. Trypsin (SIGMA-ALDRICH, catalog number: T8816, Enzyme Commission Number 3.4.21.4) prepared so as to be 5 U/mL as final concentration (BAEE unit) with Hanks-20 mM Hepes buffer (pH 7.4) was added to a 384-well deep well polypropylene plate (Greiner) to be an agonist reagent plate. Thirty minutes before the measurement using FDSS6000 (Hamamatsu Photonics K.K.), a test compound prepared with Hanks-20 mM Hepes buffer (pH 7.4) was added to the cell so as to be 8 μL/well. The cell plate to which the test compound was added and the reagent plate were set on FDSS6000, 22 μL/well of the agonist solution was added from the reagent plate, and the change in intracellular calcium concentration was measured with a CCD camera. The measurement was carried out at 37° C. for 120 seconds and the addition of reagent from the reagent plate to the cell plate was carried out using a built-in 384-well automatic dispenser of FDSS6000.
Note that Reference Example 1 in Table 3 is the compound represented by formula (XIX) synthesized in the above Reference Example 1 (hereinafter, also referred to as Compound (XIX)). Additionally, the “Comparative Compound” in Table 3 is the compound described in Patent Literature 4 represented by the following formula (XX) (I-343; hereinafter, also referred to as Compound (XX)).

[2] = test system: DNFB-induced dermatitis in BALB/c male mice; test: Mouse dermatitis model (DNFB-induced auricle swelling); format: in vivo; settings: 0.3 mg/mL solution 10 mL/kg orally 8 hours after DNFB induction, auricle thickness on following day
Procedure: The test compound was added to a 0.5% carboxymethyl cellulose solution so as to have the final concentration of 0.3 mg/mL, thereby preparing an administration solution containing the test compound. Hapten used was 2,4-dinitrofluorobenzene (DNFB, Wako Pure Chemical Industries).
Twenty-five (25) μL of a solution of DNFB diluted to 0.4% with a mixed solvent of acetone and an olive oil in a volume ratio of 2:1 was applied twice to the shaved abdominal region of BALB/c male mice (Charles River), 6-10 weeks of age, over a period of 2 days to create the sensitization. Four days after the sensitization, on the first day, 20 μL of a solution of DNFB diluted to 0.2% with a mixed solvent of acetone and an olive oil in a volume ratio of 2:1 was applied to the right auricle of the mouse to induce dermatitis. Eight hours after the induction of dermatitis, the administration solution containing the test compound (10 mL/kg) was orally administered to the mouse. On the day following the induction of dermatitis, the right auricle thickness of the mouse was measured using a thickness gauge to evaluate the action of the test compound.
Note that Reference Example 1 in Table 5 is Compound (XIX).

SMILES	IC50 [1] [nM]	Inhibitory activity on auricle swelling (%) [2] [%]
C[C@@H](c1ccccc1)N(C)c1cc(-c2cc(F)c(F)c(F)c2)nc2cc(C(=O)N3CCC(CC(=O)O)CC3)nn12 [Reference Example 1, (S)-2-(1-(7-(methyl(1-phenylethyl)amino)-5-(3,4,5-trifluorophenyl)pyrazolo[1,5-a]pyrimidine-2-carbonyl)piperidin-4-yl)acetic acid, reference compound]	8.27	22.3
CO[C@H]1CN(C(=O)c2cc3nc(-c4cc(F)c(Cl)c(F)c4)cc(N(C)c4c(C)cccc4F)n3n2)CC[C@H]1CC(=O)O [Example 10, 2-((3R,4S)-1-(5-(4-chloro-3,5-difluorophenyl)-7-((2-fluoro-6-methylphenyl)(methyl)amino)pyrazolo[1,5-a]pyrimidine-2-carbonyl)-3-methoxypiperidin-4-yl)acetic acid]	3.46	52.9
